# “Also recorded” adds a separate entry of the source.
# B1: hFGF21: full-length recombinant human FGF21 from Cell Science, given i.p. alone or with BR103354 (protein, UniProt Q9NSA1 29-209, looked up)
# Fibroblast growth factor 21: HPIPDSSPLLQFGGQVRQRYLYTDDAQQTEAHLEIREDGTVGGAADQSPESLLQLKALKPGVIQILGVKTSRFLCQRPDGALYGSLHFDPEACSFRELLLEDGYNVYQSEAHGLPLHLPGNKSPHRDPAPRGPARFLPLPGLPPALPEPPGILAPQPPDVGSSDPLSMVGPSQGRSPSYAS
# How the values were obtained:
# [1] = tested on: diet-induced obese mice; set-up: method as in PMID 27689014; settings: cited from earlier work
# [2] = tested on: CDAHFD NASH mouse model; assay: In vivo study using CDAHFD mice (NASH model); set-up: species or system C57BL/6J mice; settings: positive control 3 mg/kg p.o. for 10 weeks
# Method: C57BL/6J mice were fed normal chow diet (n = 5) or choline-deficient, L-amino acid-defined, high-fat diet (CDAHFD) for 4 weeks to induce NASH (n = 8–10/group). […] (a) Relative FAP activity was assessed by FRET-quench and serum FGF21 level at week 14. […] (c) Steatosis scores ranged from 0 to 3 (normal = 0, minimal = 1, moderate = 2, marked = 3) were determined. Hepatic steatosis and fibrosis (Picrosirius red stain) were analyzed in a blinded manner or by digital image analyzer. (d–e) Histological evaluations of liver tissue were performed in each group. Paraffin-embedded liver sections were stained with H&E (d) and Sirius red (e). Representative photographs of each group were presented. Images were obtained at 100x (Scale bar = 50 µm).
# Male C57BL/6J mice (5 weeks of age) were fed with a CDAHFD consisting of 60% kcal fat and 0.1% methionine. […] For the CDAHFD model, compound treatments were started at the beginning of week 4 on the diet and continued until week 14. […] Liver tissue was then collected. All other measurements were done similarly as described above. Staining was performed using H&E and Picrosirius red as described previously. Areas of positive Sirius red were quantified by computer-based morphometric analysis.
# [3] = tested on: ob/ob mice; assay: Acute study using ob/ob mice: blood glucose and intact hFGF21; settings: hFGF21 0.1 mg/kg i.p. alone
# Method: Blood was collected at the indicated time points. (a) Nonfasting blood glucose levels were measured at the indicated time points. […] (c) Plasma intact hFGF21 levels were measured using ELISA kit at 1, 3, 6, and 9 h. All data are the means ± S.D. *P < 0.05, **P < 0.01 and *** P < 0.001 vs. vehicle group.
# Blood was promptly collected by orbital bleeding that was allowed to clot, and supernatant was collected after centrifugation at 4 °C at 3000 rpm. Serum intact FGF21 concentrations were measured by intact hFGF21 ELISA (Alpco, Keewaydin Dr, Salem, NH, catalog no. 43-FGFHU-E01)[29].
# [4] = animals administered with Talabostat alone
molecule,measurement,setting,value
CC(C)[C@H](N)C(=O)N1CCC[C@H]1B(O)O [Talabostat],adiposity,[1]; [4],decreased
same,body weight,[1]; [4],decreased
same,food consumption,[1]; [4],decreased
same,endogenous intact FGF21 level,[1]; diet-induced obese mice,increased
same,insulin resistance / insulin sensitivity,[1]; diet-induced obese mice,improved insulin resistance; also recorded: improved insulin sensitivity
"O=C(O)c1cc(F)c2nc(N3[C@@H]4CC[C@H]3C[C@@H](OCc3c(-c5ccccc5OC(F)(F)F)noc3C3CC3)C4)sc2c1 [LJN, Tropifexor, reference compound]",all parameters of the CDAHFD study,[2],All parameters showed improvements
B1,decrease of blood glucose AUC,[3],about 20%
same,"nonfasting blood glucose level, maximum average reduction to","[3]; 3 h, starting from 340 mg/dL",230 mg/dL

# From publication PMC7718273 (Scientific Reports, 2020)
